Values of other authors as cited in patent publication US20050053655A1, “Rapid disintegrating tablets (RDTs) for pharmaceutical use and method for preparing the same” (Pharmaceutical Industry Technology and Development Center, priority 2003, published 2005).

## NC(N)=Nc1nc(CSCCC(N)=NS(N)(=O)=O)cs1 [Famotidine, famotidine]
  solubility in water: very slightly soluble in water
